The source of these data is patent publication US20050197338A1, “Substituted pyrazole urea compounds for the treatment of inflammation” (priority 2003, published 2005).

The target in this experiment is T1, Rat IKK-2 (Rattus norvegicus, UniProt Q9QY78).
T1 sequence (Q9QY78 1-757): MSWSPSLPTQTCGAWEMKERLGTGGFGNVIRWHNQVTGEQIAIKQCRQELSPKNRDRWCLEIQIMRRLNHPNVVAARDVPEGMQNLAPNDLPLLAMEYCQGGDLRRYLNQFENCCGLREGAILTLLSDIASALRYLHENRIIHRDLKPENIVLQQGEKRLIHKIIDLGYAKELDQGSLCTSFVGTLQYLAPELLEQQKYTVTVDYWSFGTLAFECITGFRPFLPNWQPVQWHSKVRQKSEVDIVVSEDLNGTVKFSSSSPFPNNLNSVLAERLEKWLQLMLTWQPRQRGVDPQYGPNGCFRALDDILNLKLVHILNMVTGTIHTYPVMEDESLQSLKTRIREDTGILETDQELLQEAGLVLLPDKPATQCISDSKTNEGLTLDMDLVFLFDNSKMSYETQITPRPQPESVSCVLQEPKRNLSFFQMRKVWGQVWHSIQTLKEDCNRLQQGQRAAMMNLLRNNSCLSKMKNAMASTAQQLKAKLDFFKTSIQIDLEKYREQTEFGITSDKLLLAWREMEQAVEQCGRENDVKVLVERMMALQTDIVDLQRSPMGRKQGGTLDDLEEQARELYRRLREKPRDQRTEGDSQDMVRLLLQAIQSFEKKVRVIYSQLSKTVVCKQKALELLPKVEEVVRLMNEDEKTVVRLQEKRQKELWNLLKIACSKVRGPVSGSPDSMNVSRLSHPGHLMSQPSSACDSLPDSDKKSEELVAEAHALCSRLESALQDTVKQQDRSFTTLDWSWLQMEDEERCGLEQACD
Description: Rat IKK-2 enzyme assay. As to conditions: read-out: IC50 (μM) rIKK-2. In kind it is biochemical.

SMILES strings stand for the structures.

Consider `N#CCOc1cc(F)ccc1-c1ccc(-n2cc(NC(N)=O)c(C(N)=O)n2)cc1` [Example 173, 4-[(aminocarbonyl)amino]-1-[2′-(cyanomethoxy)-4′-fluoro-1,1′-biphenyl-4-yl]-1H-pyrazole-3-carboxamide], for which the IC50 (usually the concentration that gives 50% inhibition) turned out to be 0.105 µM.

Turning to `NC(=O)Nc1cn(-c2ccc(-c3cccc(O)c3)cc2F)nc1C(N)=O` [Example 247, 4-[(aminocarbonyl)amino]-1-(3-fluoro-3′-hydroxy-1,1′-biphenyl-4-yl)-1H-pyrazole-3-carboxamide], the IC50 was 0.249 µM.
